EC50 data for 24 compounds are collected here from patent US8354403B2, “Pyrrolidine derived beta 3 adrenergic receptor agonists” (Merck Sharp & Dohme Corp., priority 2009, dated 2013).

Where two headings read alike, the source gives them in different places.

For the assay, the target named is T1, human β3 adrenergic receptor (Homo sapiens, UniProt P13945).
T1 construct: expressed in transfected cells; host or cells: Chinese hamster ovary (CHO) cells, stably transfected
As to the kind of experiment: Beta-3 agonist in vitro functional assay: cAMP production (LANCE TR-FRET) in CHO cells stably transfected with the cloned β3 receptor. Format: cell-based. The settings on record: read-out: Human β3 agonist functional activity. The protocol:
Chinese hamster ovary (CHO) cells, stably transfected with the cloned β-adrenergic receptor (β1, β2 or β3) are harvested after 3 days of subculturing. Harvesting of cells is done with Enzyme-free Dissociation Media (Specialty Media). Cells are then counted and resuspended in assay buffer (Hank's Balanced salt solution supplemented with 5 mM HEPES, […]) containing a phosphodiesterase inhibitor (IBMX, 0.6 mM). The reaction is initiated by mixing 6,000 cells in 6 μL with 6 μL Alexa Fluor labeled cAMP antibody (LANCE™ kit) which is then added to an assay well containing 12 μL of compound (diluted in assay buffer to 2× final concentration). The reaction proceeds for 30 minutes at RT and is terminated by the addition of 24 ul detection buffer (LANCE™ kit). The assay plate is then incubated for 1 h at RT and time-resolved fluorescence measured on a Perkin Elmer Envision reader or equivalent. The unknown cAMP level is determined by comparing fluorescence levels to a cAMP standard curve.
The non-selective, full agonist β-adrenergic ligand isoproterenol is used at all three receptors to determine maximal stimulation. […] Data are analyzed using Microsoft Excel and Graphpad Prism or an internally developed data analysis software package.
Background: Changes in cAMP serve as a functional read-out for many G protein-coupled receptors.

Where [1] appears, read: Table 8, Beta-3 agonist in vitro functional assay.
The mark [2] stands for this setting: Table 10, Beta-3 agonist in vitro functional assay.
Setting [3] is: Table 9, Beta-3 agonist in vitro functional assay.

T1 sequence (P13945 whole entry): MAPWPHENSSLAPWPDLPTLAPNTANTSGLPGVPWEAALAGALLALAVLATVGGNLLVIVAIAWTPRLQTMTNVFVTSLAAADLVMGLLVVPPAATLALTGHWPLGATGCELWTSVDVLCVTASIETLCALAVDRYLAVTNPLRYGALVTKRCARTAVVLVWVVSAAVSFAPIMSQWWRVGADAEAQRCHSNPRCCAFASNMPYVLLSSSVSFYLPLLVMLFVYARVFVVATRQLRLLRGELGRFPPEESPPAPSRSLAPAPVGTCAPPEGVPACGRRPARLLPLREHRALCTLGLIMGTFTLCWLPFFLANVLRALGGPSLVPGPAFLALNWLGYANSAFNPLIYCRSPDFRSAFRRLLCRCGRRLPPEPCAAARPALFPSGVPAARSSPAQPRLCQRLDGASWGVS

Turning to `O=C(c1ccc(C[C@@H]2CC[C@H]([C@H](O)c3ccccc3)N2)cc1)N1CCC(C(O)c2ccccn2)CC1` (stereo partly drawn) [Example 168], for the setting “Table 5, cAMP, CHO cells”, the EC50 is 10 to 99.9 nM.

Turning to `O=C(c1ccc(CC2CCC(C(O)c3ccccc3)N2)cc1)N1CC2C(C1)C2Cn1nccn1` (stereo not drawn) [Example 232], where the note is “Table 7, cAMP, CHO cells, ranges as given for Tables 6 and 7”, the EC50 was in the range of 100 to 999 nM.

As for `Cc1nc(C2CCN(C(=O)c3ccc(C[C@@H]4CC[C@H]([C@H](O)c5ccccc5)N4)cc3)CC2)ns1` [Example 89], the EC50 (Table 5, cAMP, CHO cells) fell in the range of 100 to 999 nM.

Take `O=C(c1ccc(C[C@@H]2CC[C@H]([C@H](O)c3ccccc3)N2)cc1)N1CCC(S(=O)(=O)CC(F)(F)F)CC1` [Example 125]: where the note is “Table 5, cAMP, CHO cells”, the EC50 was in the range of 10 to 99.9 nM.

Regarding `O=C(c1ccc(C[C@@H]2CC[C@H]([C@H](O)c3ccccc3)N2)cc1)N1CC2CCC(C1)C2n1cnnn1` (stereo partly drawn) [Example 63], the EC50 (Table 4, cAMP, CHO cells) is 1 to 9.9 nM.

With `O=C1CC(c2ccccc2)C2(CCN(C(=O)c3ccc(C[C@@H]4CC[C@H]([C@H](O)c5ccccc5)N4)cc3)CC2)O1` (stereo partly drawn) [Example 280], the EC50 under setting [1] fell in the range of 1 to 9.9 nM.

Take `O=C(c1ccc(C[C@@H]2CC[C@H]([C@H](O)c3ccccc3)N2)cc1)N1CCC(COc2ccncn2)CC1` [Example 162]: the EC50 (Table 5, cAMP, CHO cells) was 10 to 99.9 nM.

For the compound `CC(C(=O)NCC(N)=O)N1CCN(C(=O)c2ccc(C[C@@H]3CC[C@H]([C@H](O)c4ccccc4)N3)cc2)CC1` (stereo partly drawn) [Example 445], the EC50 under setting [2] was in the range of 100 to 999 nM.

With `Cn1ccnc1C1CCCCN1C(=O)c1ccc(C[C@@H]2CC[C@H]([C@H](O)c3ccccc3)N2)cc1` (stereo partly drawn) [Example 51], the EC50 (Table 4, cAMP, CHO cells) lay within 100 to 999 nM.

`CC(C)n1nnc(CN2CCN(C(=O)c3ccc(C[C@@H]4CC[C@H]([C@H](O)c5ccccc5)N4)cc3)CC2)n1` [Example 402]: the EC50 under setting [3] fell in the range of 10 to 99.9 nM.

As for `CC(C1CCN(C(=O)c2ccc(C[C@@H]3CC[C@H]([C@H](O)c4ccccc4)N3)cc2)CC1)n1cnccc1=O` (stereo partly drawn) [Example 166], the EC50 (Table 5, cAMP, CHO cells) lay in the range of 10 to 99.9 nM.

Regarding `CC(C(=O)N1CCC1)N1CCN(C(=O)c2ccc(C[C@@H]3CC[C@H]([C@H](O)c4ccccc4)N3)cc2)CC1` (stereo partly drawn) [Example 471], the EC50 under setting [2] was in the range of 1 to 9.9 nM.

With `O=C1OC2(CCN(C(=O)c3ccc(C[C@@H]4CC[C@H]([C@H](O)c5ccccc5)N4)cc3)CC2)Cc2ccccc21` [Example 333], the EC50 under setting [1] was in the range of 1 to 9.9 nM.

As for `C[C@H]1CN(C(=O)c2ccc(C[C@@H]3CC[C@H]([C@H](O)c4ccccc4)N3)cc2)CCN1Cc1ccccn1` [Example 528], the EC50 (Table 11, cAMP, CHO cells) fell in the range of 10 to 99.9 nM.

As for `O=C(O)c1ccccc1N1CCN(C(=O)c2ccc(C[C@@H]3CC[C@H]([C@H](O)c4ccccc4)N3)cc2)CC1` [Example 350], the EC50 under setting [3] lay within 100 to 999 nM.

On to `O=C(c1ccc(C[C@@H]2CC[C@H]([C@H](O)c3ccccc3)N2)cc1)N1CC2CC(n3cncn3)CC2C1` (stereo partly drawn) [Example 22], for which, under “Table 4, cAMP, CHO cells”, the EC50 fell in the range of 100 to 999 nM.

`O=C1CN(C(=O)c2ccc(C[C@@H]3CC[C@H]([C@H](O)c4ccccc4)N3)cc2)CCN1Cc1ccccn1` [Example 545]: under “Table 11, cAMP, CHO cells”, the EC50 lay in the range of 100 to 999 nM.

Regarding `C[C@@H](c1ccccn1)N1CCN(C(=O)c2ccc(C[C@@H]3CC[C@H]([C@H](O)c4ccccc4)N3)cc2)CC1` [Example 431], the EC50 under setting [3] fell in the range of 10 to 99.9 nM.

Consider `O=C1OC2(CCN(C(=O)c3ccc(C[C@@H]4CC[C@H]([C@H](O)c5ccccc5)N4)cc3)CC2)c2scnc21` [Example 289], for which the EC50 under setting [1] is 10 to 99.9 nM.

Turning to `Cc1c(CNC(=O)C(C)N2CCN(C(=O)c3ccc(C[C@@H]4CC[C@H]([C@H](O)c5ccccc5)N4)cc3)CC2)cnn1C` (stereo partly drawn) [Example 464], the EC50 under setting [2] was in the range of 10 to 99.9 nM.

For the compound `O=C(c1ccc(C[C@@H]2CC[C@H]([C@H](O)c3ccccc3)N2)cc1)N1CCN(C(=O)c2ccccn2)CC1` [Example 348], the EC50 under setting [3] lay in the range of 10 to 99.9 nM.

As to `Cc1ccc(S(=O)(=O)C2CCN(C(=O)c3ccc(C[C@@H]4CC[C@H]([C@H](O)c5cccnc5)N4)cc3)CC2)cc1` [Example 135], for the setting “Table 5, cAMP, CHO cells”, the EC50 lay in the range of 100 to 999 nM.

In the case of `COc1ccc(CC2CCN(C(=O)c3ccc(C[C@@H]4CC[C@H]([C@H](O)c5ccccc5)N4)cc3)CC2)cc1F` [Example 147], the EC50 (Table 5, cAMP, CHO cells) fell in the range of 10 to 99.9 nM.

As for `COc1cccnc1CN1CCN(C(=O)c2ccc(C[C@@H]3CC[C@H]([C@H](O)c4ccccc4)N3)cc2)CC1` [Example 414], under setting [3], the EC50 lay within 10 to 99.9 nM.
